The values below are quoted from earlier work in patent US11857520B2, “Therapeutic composition of intranasal lidocaine” (Nortic Holdings Inc., priority 2018, dated 2024).

SMILES strings stand for the structures.

The test system of the first data set is skin. The conditions noted are these: HSDB database.
In the case of `OCc1ccccc1` [benzyl alcohol], the “level irritating to the skin” value is not below 3%.

Tested on in the next data set: not given
The settings on record: generally recognized.
In the case of `CCCCN1CCCCC1C(=O)Nc1c(C)cccc1C` (centres unmarked) [bupivacaine], the Maximum dose was 3 mg/kg.

Turning to `CCN(CC)CCOC(=O)c1ccc(N)cc1Cl` [chloroprocaine], the Maximum dose is recorded as 12 mg/kg. As to `COC(=O)[C@H]1[C@@H](OC(=O)c2ccccc2)C[C@@H]2CC[C@H]1N2C` [cocaine], the Maximum dose is reported as 3 mg/kg. Consider `CCN(CC)CC(=O)Nc1c(C)cccc1C` [lidocaine], for which the Maximum dose was 4.5 mg/kg and the duration of action was 0.75 to 1.5 h. Turning to `Cc1cccc(C)c1NC(=O)C1CCCCN1C` (centres unmarked) [mepivacaine], the Maximum dose is 4.5 mg/kg and the duration of action was 1 to 2 h. Regarding `CCCNC(C)C(=O)Nc1ccccc1C` (centres unmarked) [prilocaine], the Maximum dose was 8 mg/kg. For `CCN(CC)CCOC(=O)c1ccc(N)cc1` [procaine], the Maximum dose is on record as 12 mg/kg. Consider `CCCN1CCCC[C@H]1C(=O)Nc1c(C)cccc1C` [ropivacaine], for which the Maximum dose is listed as 3 mg/kg. With `CCCCNc1ccc(C(=O)OCCN(C)C)cc1` [tetracaine], the Maximum dose is reported as 3 mg/kg and the duration of action was 1.5 to 6 h.

The next data set relates to human retinal pigment epithelial cell. The conditions noted are these: 0.225 mg/ml in triamcinolone acetonide (TA) following intravitreal injection, at 2 hours.
For `OCc1ccccc1` [benzyl alcohol], the “effect on human retinal pigment epithelial cells” value is “caused ultrastructural damage and impaired human retinal pigment epithelial cell function”.
